In paper PMC10761696, “Avapritinib-based SAR studies unveil a binding pocket in KIT and PDGFRA” (Nature Communications, 2024):
Several values for one entry are separate records, joined by “and”; a condition that tells them apart may be missing. Identical values can stand only once. Like-named read-outs stand apart in the source and are kept apart here.

Key:
[1] = MDCKII-MDR1 permeability assay; conditions: dog, MDCK-MDR1, Papp A->B, MDCKII-MDR1; assay conc. 10; apical to basolateral
[2] = system: MDR1; assay: MDCKII-MDR1 permeability assay; conditions: dog, MDCKII-MDR1, assay conc. 10
[3] = system: T1-V654A; assay: CellTiter-Glo (CTG) GR50, T1-V654A; conditions: Homo sapiens
[4] = molecular target: T1, PDGFRA-D842V (Homo sapiens, UniProt P16234, D842V); assay: Activity-based HTRF KinEASE assay, PDGFRA-D842V; type: biochemical
T1 construct: purchased Invitrogen PV4203 (lot #2343231B)

[5] = system: ZR-75-1; assay: CellTiter-Glo (CTG) EC50, ZR-75-1 breast cancer control cell line; type: cell-based, human
Description: (§1) Cell line authenticity was confirmed by STR analysis at Eurofins Genomics. All cell lines were tested regularly for mycoplasma contamination using the Mycoplasmacheck Service at Eurofins Genomics. […] Following incubation for 24 h in a humidified atmosphere at 37 °C and 5% CO2, cells were treated with inhibitors in serial dilutions ranging from 30 µM down to 0.1 nM using an Echo650 acoustic liquid handler (Beckman Coulter). Cell viability was analyzed on day 5 using the CellTiter-Glo® assay (Promega) using 500 ms integration time. The obtained data were normalized to the plate positive control (30 µM staurosporine) and negative control (DMSO) and subsequently analyzed and fitted with the Quattro Software Suite (Quattro Research) using a four-parameter logistic model. As quality control, the Z’-factor was calculated from 16 positive and negative control values. Only assay results showing a Z’-factor ≥0.5 were used for further analysis. All experimental points were measured in duplicates for each plate and were independently replicated in at least three plates.

[6] = system: GIST-T1; assay: CellTiter-Glo (CTG) GR50, GIST-T1; conditions: Homo sapiens
[7] = system: T1-a-5258; assay: CellTiter-Glo (CTG) GR50, T1-a-5258; conditions: Homo sapiens
[8] = system: T1-T670I; assay: CellTiter-Glo (CTG) GR50, T1-T670I; conditions: Homo sapiens
[9] = system: SK-LMS-1; assay: CellTiter-Glo (CTG) GR50, SK-LMS-1 control cell line; conditions: for CTG GR50 SK-LMS-1, single determinations: raw data of Supp. Tab. 2, independent experiments, unit from Supp. Tab. 2
[10] = system: GIST-48B; assay: CellTiter-Glo (CTG) GR50, GIST-48B control cell line (off-target toxicity); conditions: ratio of GR50 values; for GIST-48B/D842V: source data sheet
[11] = molecular target: KIT-D816H (Homo sapiens, UniProt P10721, D816H); assay: Activity-based HTRF KinEASE assay, KIT-D816H; type: biochemical
[12] = system: MDA-MB-175VII; assay: CellTiter-Glo (CTG) EC50, MDA-MB-175VII breast cancer control cell line; type: cell-based, human
Description: as §1

[13] = read-out: CTG GR50 T1-V654A, single determinations, raw data of Supp. Tab. 1, independent experiments, unit from Supp. Tab. 1
[14] = read-out: KIT CTG GR50 T1-V654A, mean ± s.d., n ≥ 3 (* n = 2 for ava)
[15] = mean ± s.d., n ≥ 3, ATP at KM (14 µM), read-out: HTRF IC50 PDGFRA-D842V
[16] = raw data of Table 1, independent experiments 1-3, unit from Table 1, read-out: HTRF IC50 PDGFRA-D842V, single determinations
[17] = Homo sapiens, ZR-75-1, mean ± s.d., n = 3, control cell line, read-out: CTG EC50 ZR-75-1
[18] = Homo sapiens, ZR-75-1, raw data of Supp. Tab. 2, independent experiments, unit from Supp. Tab. 2, read-out: CTG EC50 ZR-75-1, single determinations
[19] = GISTT1, read-out: KIT CTG GR50 GIST-T1, mean ± s.d., n ≥ 3, GR50 half-maximal growth inhibition rate
[20] = read-out: CTG GR50 T1-a-5258, single determinations, raw data of Supp. Tab. 1, independent experiments, unit from Supp. Tab. 1
[21] = read-out: PDGFRA CTG GR50 T1-a-5258, mean ± s.d., n ≥ 3, triple mutant D842V, G652E, V658A
[22] = read-out: CTG GR50 T1-T670I, single determinations, raw data of Supp. Tab. 1, independent experiments, unit from Supp. Tab. 1
[23] = read-out: KIT CTG GR50 T1-T670I, mean ± s.d., n ≥ 3
[24] = mean ± s.d., n ≥ 3, ATP at KM (12 µM), read-out: HTRF IC50 KIT-D816H
[25] = raw data of Table 1, independent experiments, unit from Table 1, read-out: HTRF IC50 KIT-D816H, single determinations
[26] = Homo sapiens, MDA-MB-175-VII, read-out: CTG EC50 MDA-MB-175VII, mean ± s.d., n = 3, control cell line
[27] = Homo sapiens, MDA-MB-175-VII, read-out: CTG EC50 MDA-MB-175VII, single determinations, raw data of Supp. Tab. 2, independent experiments, unit from Supp. Tab. 2
[28] = GISTT1, read-out: CTG GR50 GIST-T1, single determinations, raw data of Table 1, independent experiments, unit from Table 1

T1 sequence (P16234 24-1089 D842V): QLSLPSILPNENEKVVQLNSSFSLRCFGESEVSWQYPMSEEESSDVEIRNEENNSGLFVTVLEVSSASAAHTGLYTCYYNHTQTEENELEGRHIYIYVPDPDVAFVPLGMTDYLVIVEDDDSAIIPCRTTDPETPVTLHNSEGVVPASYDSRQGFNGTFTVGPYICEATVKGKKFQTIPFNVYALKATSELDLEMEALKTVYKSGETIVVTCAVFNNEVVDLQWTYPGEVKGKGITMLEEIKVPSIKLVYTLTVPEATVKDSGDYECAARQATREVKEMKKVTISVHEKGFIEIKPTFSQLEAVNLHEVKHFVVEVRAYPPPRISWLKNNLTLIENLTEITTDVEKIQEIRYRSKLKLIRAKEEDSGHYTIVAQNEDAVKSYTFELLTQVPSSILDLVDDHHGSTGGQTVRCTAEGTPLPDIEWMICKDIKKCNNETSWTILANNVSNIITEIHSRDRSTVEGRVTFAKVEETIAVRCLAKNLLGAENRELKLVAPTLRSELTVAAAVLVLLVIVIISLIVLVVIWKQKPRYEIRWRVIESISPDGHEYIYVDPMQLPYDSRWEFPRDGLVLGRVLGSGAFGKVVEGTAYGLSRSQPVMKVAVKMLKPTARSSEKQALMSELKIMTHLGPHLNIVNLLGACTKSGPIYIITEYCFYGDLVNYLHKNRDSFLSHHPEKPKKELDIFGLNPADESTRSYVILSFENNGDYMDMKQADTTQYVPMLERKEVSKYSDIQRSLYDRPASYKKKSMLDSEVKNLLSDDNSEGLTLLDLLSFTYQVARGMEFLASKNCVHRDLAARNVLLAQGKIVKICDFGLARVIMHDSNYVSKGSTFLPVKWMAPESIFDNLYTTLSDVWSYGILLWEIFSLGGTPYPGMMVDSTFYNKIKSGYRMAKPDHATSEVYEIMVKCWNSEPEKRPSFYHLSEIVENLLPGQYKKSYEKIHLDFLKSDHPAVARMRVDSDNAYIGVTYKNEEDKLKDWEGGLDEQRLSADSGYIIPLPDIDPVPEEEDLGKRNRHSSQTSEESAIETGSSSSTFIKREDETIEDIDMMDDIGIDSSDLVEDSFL
Chain of KIT-D816H (P10721 26-976 D816H): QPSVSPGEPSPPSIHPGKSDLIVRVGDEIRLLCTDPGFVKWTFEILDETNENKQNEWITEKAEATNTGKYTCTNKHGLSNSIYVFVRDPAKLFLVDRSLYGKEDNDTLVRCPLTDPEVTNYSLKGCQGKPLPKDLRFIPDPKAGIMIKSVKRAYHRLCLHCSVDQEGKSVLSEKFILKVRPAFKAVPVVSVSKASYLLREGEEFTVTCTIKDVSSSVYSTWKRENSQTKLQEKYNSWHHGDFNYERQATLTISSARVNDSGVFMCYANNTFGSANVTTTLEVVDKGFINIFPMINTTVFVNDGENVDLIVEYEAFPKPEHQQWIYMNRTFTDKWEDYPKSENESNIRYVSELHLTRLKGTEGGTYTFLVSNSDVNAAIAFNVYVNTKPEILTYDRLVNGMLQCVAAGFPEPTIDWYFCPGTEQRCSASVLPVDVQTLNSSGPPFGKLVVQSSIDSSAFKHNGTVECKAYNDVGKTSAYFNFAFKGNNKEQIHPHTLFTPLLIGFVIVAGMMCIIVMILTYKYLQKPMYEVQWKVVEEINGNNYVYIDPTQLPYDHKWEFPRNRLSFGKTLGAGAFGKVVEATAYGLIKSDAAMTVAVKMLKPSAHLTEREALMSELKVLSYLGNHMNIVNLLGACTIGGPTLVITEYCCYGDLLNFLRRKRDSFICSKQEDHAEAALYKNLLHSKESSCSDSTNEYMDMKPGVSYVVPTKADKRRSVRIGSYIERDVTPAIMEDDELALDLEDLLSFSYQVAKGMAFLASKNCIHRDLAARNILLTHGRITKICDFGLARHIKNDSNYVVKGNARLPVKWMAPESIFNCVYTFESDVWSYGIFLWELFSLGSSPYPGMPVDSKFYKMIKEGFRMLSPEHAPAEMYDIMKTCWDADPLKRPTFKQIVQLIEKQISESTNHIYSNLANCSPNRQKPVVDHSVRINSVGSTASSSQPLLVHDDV

Compound: Cn1cc(-c2cc3c(N4CCN(c5ncc(C(C)(N)c6ccc(F)cc6)cn5)CC4)ncnn3c2)cn1 (centres unmarked) [1 (avapritinib)]
- Papp A→B at 2 h, 10 µM [1]: 12.5 ×10⁻⁶ cm/s
- recovery at 2 h, 10 µM ([2]; MDCK-MDR1, Recovery A->B): 87.6%
- recovery at 2 h, 10 µM ([2]; MDCK-MDR1, Recovery B->A): 150%

Compound: Cn1cc(-c2cc3c(Cl)ncnn3c2)cn1 [Compound 2, 4-chloro-6-(1-methyl-1H-pyrazol-4-yl)pyrrolo[2,1-f][1,2,4]triazine]
- GI50 [3, 13]: 6.09 µM
- GI50 [3, 14]: 7.56 ± 0.991 µM
- IC50 [4, 15]: 7.34 µM
- IC50 [4, 16]: 4.47 µM and 9.3 µM and 8.26 µM
- EC50 [5, 17]: 6.48 µM
- EC50 [5, 18]: 7.51 µM
- EC50 ([5]; raw data of Supp. Tab. 2, independent experiments, unit from Supp. Tab. 2, read-out: CTG EC50 ZR-75-1, single determinations): 7.14 µM and 4.8 µM
- GI50 [6, 19]: 6.73 ± 2.07 µM
- GI50 [7, 20]: 1.38 µM
- GI50 [7, 21]: 1.34 ± 0.07 µM
- GI50 [8, 22]: 3.55 µM
- GI50 [8, 23]: 2.87 ± 0.51 µM
- CTG GR50 SK-LMS-1 ([9]; mean ± s.d., n = 3, control cell line): 7.713 ± 3.929 µM and 7.713 µM
- ratio GIST-48B/ T1-a-D842V [10]: 3
- GIST-48B/D842V [10]: 3
- IC50 [11, 24]: 9300 ± 1210 nM
- IC50 [11, 25]: 7.91 µM and 10 µM (2×)
- EC50 [12, 26]: 9.19 µM
- EC50 [12, 27]: 10 µM
- EC50 ([12]; read-out: CTG EC50 MDA-MB-175VII, single determinations, raw data of Supp. Tab. 2, independent experiments, unit from Supp. Tab. 2): 7.57 µM

Compound: Cn1cc(-c2cc3c(N4CCNCC4)ncnn3c2)cn1 [Compound 3]
- IC50 [4, 15]: 5.59 ± 2.56 µM
- IC50 [4, 16]: 2.5 µM and 8.76 µM and 5.5 µM
- EC50 [5, 17]: ≥ 10 µM
- EC50 [5, 18]: ≥ 10 µM
- GI50 [6, 28]: ≥ 10 µM
- GI50 [6, 19]: ≥ 10 µM
- CTG GR50 SK-LMS-1, single determinations [9]: ≥10 µM
- ratio GIST-48B/ T1-a-D842V [10]: 1
- GIST-48B/D842V [10]: 1
- IC50 [11, 24]: 1540 ± 852 nM
- IC50 [11, 25]: 1400 nM and 766 nM and 2450 nM
- EC50 [12, 26]: ≥ 10 µM
- EC50 [12, 27]: ≥ 10 µM

Compound: Cn1cc(-c2cc3c(N4CCN(c5ncccn5)CC4)ncnn3c2)cn1 [Compound 4]
- GI50 [3, 13]: ≥ 10 µM
- GI50 [3, 14]: ≥ 10 µM
- fold increase in potency with respect to PDGFRA-D842V ([4]; 4 (pyrimidine added) compared with 3): 160 fold
- IC50 [4, 15]: 0.035 ± 0.013 µM
- IC50 [4, 16]: 0.0496 µM and 0.0362 µM and 0.0185 µM
- EC50 [5, 17]: ≥ 10 µM
- EC50 [5, 18]: ≥ 10 µM
- GI50 [6, 28]: 5.8 µM
- GI50 [6, 19]: 5.27 ± 0.509 µM
- GI50 [7, 20]: ≥ 10 µM
- GI50 [7, 21]: ≥ 10 µM
- GI50 [8, 22]: ≥ 10 µM
- GI50 [8, 23]: ≥ 10 µM
- CTG GR50 SK-LMS-1, single determinations [9]: ≥10 µM
- ratio GIST-48B/ T1-a-D842V [10]: 5
- GIST-48B/D842V [10]: 5.3
- IC50 [11, 24]: 76 ± 45 nM
- IC50 [11, 25]: 27.5 nM and 82.1 nM and 118 nM
- EC50 [12, 26]: ≥ 10 µM
- EC50 [12, 27]: ≥ 10 µM

Compound: Cn1cc(-c2cc3c(N4CCN(c5ncc(Cc6ccccc6)cn5)CC4)ncnn3c2)cn1 [Compound 5]
- GI50 [3, 13]: ≥ 10 µM
- GI50 [3, 14]: ≥ 10 µM
- EC50 [5, 17]: ≥ 10 µM
- EC50 [5, 18]: ≥ 10 µM
- GI50 [6, 19]: 1.48 ± 1.2 µM
- GI50 [7, 20]: 6.6 µM
- GI50 [7, 21]: 8.26 ± 1.7 µM
- GI50 [8, 22]: ≥ 10 µM
- GI50 [8, 23]: ≥ 10 µM
- CTG GR50 SK-LMS-1, single determinations [9]: ≥10 µM
- EC50 [12, 26]: ≥ 10 µM
- EC50 [12, 27]: ≥ 10 µM
